The test system of series [1] is Hepatitis B virus. In words: Antiviral activity against HBV infected in human HepG2 2.2.15 cells assessed as inhibition of HBeAg secretion at 50 ug/mL after 9 days by ELISA. The format is functional. The following applies: HepG2, 216 h.
A short description of series [2]: Cytotoxicity of human HepG2(2.2.15) cells assessed as growth inhibition at 200 ug/mL by MTT assay. Format: cell-based. A general note: Tetrazolium assays rely on reduction of a dye to a coloured formazan, in cell work by metabolically active cells.
For series [3], the system named is Hepatitis B virus. Briefly: Antiviral activity against HBV infected in human HepG2 2.2.15 cells assessed as inhibition of HBsAg secretion at 50 ug/mL after 9 days by ELISA. The following applies: HepG2, 216 h. Format: functional. (In general: In an ELISA, binding on a coated surface is turned into a signal by an enzyme label.)
A short description of series [4]: Cytotoxicity of human HepG2(2.2.15) cells assessed as growth inhibition at 100 ug/mL by MTT assay. Format: cell-based.
Series [5] relates to Hepatitis B virus. In words: Antiviral activity against HBV infected in human HepG2 2.2.15 cells assessed as inhibition of HBeAg secretion at 25 ug/mL after 9 days by ELISA. Format: functional. The following applies: HepG2, 216 h.
For series [6], the system named is Hepatitis B virus. In words: Antiviral activity against HBV infected in human HepG2 2.2.15 cells assessed as inhibition of HBsAg secretion at 25 ug/mL after 9 days by ELISA. Format: functional. Particulars: HepG2, 216 h.
In series [7] the test system is Hepatitis B virus. Briefly: Antiviral activity against HBV infected in human HepG2 2.2.15 cells assessed as inhibition of HBeAg secretion at 100 ug/mL after 9 days by ELISA. The format is functional. Particulars: HepG2, 216 h.
The subject of series [8] is Hepatitis B virus. Briefly: Antiviral activity against HBV infected in human HepG2 2.2.15 cells assessed as inhibition of HBsAg secretion at 100 ug/mL after 9 days by ELISA. Format: functional. Particulars: HepG2, 216 h.
Series [9] relates to Hepatitis B virus. Briefly: Antiviral activity against HBV infected in human HepG2 2.2.15 cells assessed as inhibition of HBeAg secretion at 200 ug/mL after 9 days by ELISA. Format: functional. The following applies: HepG2, 216 h.
For series [10], the system named is Hepatitis B virus. In words: Antiviral activity against HBV infected in human HepG2 2.2.15 cells assessed as inhibition of HBsAg secretion at 200 ug/mL after 9 days by ELISA. Particulars: HepG2, 216 h. Format: functional.

What is called inhibition is the change of the read-out against control, counted positive when it falls.

Molecules are shown by their SMILES.

For `CC(C)(O)[C@@H]1CC[C@@]2(C)CCC(CO)=CC[C@H]12` (relative stereo) [SCHISANWILSONENE A], the values for the inhibition at 50 µg/mL with Hepatitis B virus [1] and with Hepatitis B virus [3] were 28.9% and 76.5%, respectively. Besides, in [2], the inhibition at 200 ug/mL is at least 25%. Further, the inhibition at 100 ug/mL in series [4] is at least 25%. Also, the inhibition at 25 µg/mL in the series with Hepatitis B virus [5] stood at 11.3%; with Hepatitis B virus [6], 27.5%.

In the case of `CC(=O)OCC1=CC[C@@H]2[C@H](C(C)(C)O)CC[C@@]2(C)CC1` (relative stereo) [SCHISANWILSONENE B], the inhibition at 100 µg/mL in the series on Hepatitis B virus [7] worked out at 0%; in the series on Hepatitis B virus [8] it was 58.6%. Further, the values for the inhibition at 50 µg/mL with Hepatitis B virus [1] and with Hepatitis B virus [3] were 0% and 20.5%, respectively. Moreover, the inhibition at 200 ug/mL in series [2] is at least 25%. Further, the inhibition at 25 µg/mL in the series on Hepatitis B virus [5] was found to be 0%; in the series on Hepatitis B virus [6], 5.6%.

In the case of `CC(C)(O)[C@@H]1CC[C@@]2(C)CCC(C=O)=CC[C@H]12` (relative stereo) [SCHISANWILSONENE C], the values for the inhibition at 100 µg/mL in the series on Hepatitis B virus [7] and in the series on Hepatitis B virus [8] were 6.1% and 11.7%, respectively. The inhibition at 50 µg/mL with Hepatitis B virus [1] was determined as 1.4%; in the series on Hepatitis B virus [3], 5.5%. For the same compound, the results for the inhibition at 200 µg/mL in the series with Hepatitis B virus [9] and in the series with Hepatitis B virus [10] were 8.8% and 28.3%, respectively. The inhibition at 25 µg/mL with Hepatitis B virus [5] was 1.1%; in the series with Hepatitis B virus [6], 0%.

Regarding `Nc1ccn([C@@H]2CS[C@H](CO)O2)c(=O)n1` [LAMIVUDINE], the inhibition at 200 µg/mL in the series on Hepatitis B virus [9] was determined as 34.8%; in the series on Hepatitis B virus [10], 28.6%.

The values above are taken from ChEMBL document CHEMBL1151825, “Schisanwilsonenes A-C, anti-HBV Carotane sesquiterpenoids from the fruits of Schisandra wilsoniana” (J Nat Prod, 2009).
